In patent US20250230193A1, “CYCLIC COMPOUND HAVING SELECTIVE KRAS INHIBITORY EFFECT ON HRAS AND NRAS” (CHUGAI SEIYAKU KABUSHIKI KAISHA, priority 2022, published 2025):
*1 amine or outer side, *2 acyl side, *3 side chain or, on linkers, in order; H or OH if unused. Where a SMILES comes first, the peptide text is derived from it. Bridges are numbered along the chain shown (N, C = ends). [ ]: non-standard residue; d: D form. The star is where a group is joined. hPhe(3-Cl-4-CF3) = N[C@@H](CCc1ccc(C(F)(F)F)c(Cl)c1)C(=O)O; X47 = O=C([C@H](Cc1ccc(C(F)(F)F)cc1)N(CCCF)[*:1])[*:2]; NPrPhe(4-CF3) = CCCN[C@@H](Cc1ccc(C(F)(F)F)cc1)C(=O)O; NMeGly(cPent) = CN[C@H](C(=O)O)C1CCCC1; Pro(4,4-F2) = O=C(O)[C@@H]1CC(F)(F)CN1; NMeD = CN[C@@H](CC(=O)O)C(=O)O; NMeL = CN[C@@H](CC(C)C)C(=O)O; Morpholide = C1CN(*)CCO1; Ac5c = NC1(C(=O)O)CCCC1; Aze = O=C(O)[C@@H]1CCN1; Ac4c = NC1(C(=O)O)CCC1; Sar = CNCC(=O)O

What was measured:
[1] = target: GDP-bound NRAS wild-type protein (Homo sapiens, UniProt P01111); assay: Binding to NRAS by surface plasmon resonance (SPR), Single Cycle Kinetics
Chain of GDP-bound NRAS wild-type protein (P01111 whole entry): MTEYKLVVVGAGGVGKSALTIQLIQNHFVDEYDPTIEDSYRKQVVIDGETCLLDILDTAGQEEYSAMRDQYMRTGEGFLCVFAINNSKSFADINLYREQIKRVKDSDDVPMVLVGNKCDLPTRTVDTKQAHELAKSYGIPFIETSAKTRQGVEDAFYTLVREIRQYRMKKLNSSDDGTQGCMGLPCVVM

[2] = target: GDP-bound HRAS wild-type protein (Homo sapiens, UniProt P01112); assay: Binding to HRAS by surface plasmon resonance (SPR), Single Cycle Kinetics
Chain of GDP-bound HRAS wild-type protein (P01112 whole entry): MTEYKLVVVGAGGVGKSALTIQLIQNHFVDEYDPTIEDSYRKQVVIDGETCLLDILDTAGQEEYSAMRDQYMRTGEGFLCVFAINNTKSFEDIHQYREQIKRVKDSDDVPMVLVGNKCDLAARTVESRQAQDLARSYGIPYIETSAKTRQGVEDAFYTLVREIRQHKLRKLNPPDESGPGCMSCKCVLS

[3] = KD ratio, GDP-bound NRAS wild-type vs GDP-bound KRAS wild-type, SPR
[4] = KD ratio, GDP-bound HRAS wild-type vs GDP-bound KRAS wild-type, SPR

Compound: CCCN(C)C(=O)[C@@H]1CC(=O)N(C)[C@@H](CC2CCC2)C(=O)N[C@@H]([C@@H](C)CC)C(=O)N(C)CC(=O)N(C)[C@H]2C/C=C\CCN(C2=O)[C@@H](Cc2ccc(C(F)(F)F)cc2)C(=O)N(C)CC(=O)N[C@@H](CCc2cc(F)c(C(F)(F)F)c(F)c2)C(=O)N2C[C@H](OCC)C[C@H]2C(=O)NC2(CCC2)C(=O)N(C)[C@@H](C2CCCC2)C(=O)N1C [PP1705]
- NRAS/KRAS (ratio of KD value for NRAS to KD value for KRAS) [1, 3]: AA (a compound having 20 or more is denoted as AA)
- HRAS/KRAS (ratio of KD value for HRAS to KD value for KRAS) [2, 4]: A (a compound having 10 or more and less than 20 is denoted as A)

Compound: C#CCN1CC(=O)N(C)[C@H]2C/C=C\CCN(C2=O)[C@@H](Cc2ccc(C(F)(F)F)cc2)C(=O)N(C)CC(=O)N[C@@H](CCc2ccc(C(F)(F)F)c(OC)c2)C(=O)N2C[C@H](OCC)C[C@H]2C(=O)NC2(CC(C)(C)C2)C(=O)N(C)[C@@H](C2CCCC2)C(=O)N(C)[C@H](C(=O)N(C)C)CC(=O)N(C)[C@@H](CCC)C(=O)N[C@@H]([C@@H](C)CC)C1=O [PP2107]
- NRAS/KRAS (ratio of KD value with respect to NRAS to KD value with respect to KRAS) ([1]; SPR, GDP-bound NRAS wild-type vs GDP-bound KRAS wild-type): A (a compound having 10 or more and less than 20 is denoted as A)
- HRAS/KRAS (ratio of KD value with respect to HRAS to KD value with respect to KRAS) ([2]; SPR, GDP-bound HRAS wild-type vs GDP-bound KRAS wild-type): A (a compound having 10 or more and less than 20 is denoted as A)

Compound: CCO[C@@H]1C[C@H]2C(=O)NC3(CCC3)C(=O)N(C)[C@@H](C3CCCC3)C(=O)N(CCC3CCC3)[C@H](C(=O)N3CCOCC3)CC(=O)N(C)[C@@H](CC(C)C)C(=O)N[C@@H]([C@@H](C)CC)C(=O)N(C)CC(=O)N(C)[C@H]3CCCCN(C3=O)[C@@H](Cc3ccc(C(F)(F)F)cc3)C(=O)N(C)CC(=O)N[C@@H](CCc3cc(F)c(C(F)(F)F)c(F)c3)C(=O)N2C1 [PP0650]
- NRAS/KRAS (ratio of KD value with respect to GDP-bound NRAS wild-type protein to KD value with respect to KRAS) ([1]; KD ratio NRAS/KRAS, SPR): C (A compound having a KD ratio of 0.1 or more and less than 3 is denoted as C)
- HRAS/KRAS (ratio of KD value with respect to GDP-bound HRAS wild-type protein to KD value with respect to KRAS) ([2]; KD ratio HRAS/KRAS, SPR): B (a compound having 3 or more and less than 10 is denoted as B)

Compound: CC[C@H](C)[C@@H]1NC(=O)[C@H](CC(C)C)N(C)C(=O)C[C@@H](C(=O)N2CCOCC2)N(C)C(=O)[C@H](C2CCCC2)N(C)C(=O)C2(CCCC2)NC(=O)[C@@H]2CCCN2C(=O)[C@H](CCc2ccc(C(F)(F)F)c(Cl)c2)NC(=O)CN(C)C(=O)[C@H](Cc2ccc(C(F)(F)F)cc2)N(CCCF)C(=O)CN(C)C(=O)CN(C)C1=O [PP0524] ([NMeL]I[Sar][Sar][X47][Sar][hPhe(3-Cl-4-CF3)]P[Ac5c][NMeGly(cPent)][NMeD]-Morpholide; lactam N-11)
- NRAS/KRAS (ratio of KD value with respect to GDP-bound NRAS wild-type protein to KD value with respect to KRAS) ([1]; KD ratio NRAS/KRAS, SPR): B (a compound having 3 or more and less than 10 is denoted as B)
- HRAS/KRAS (ratio of KD value with respect to GDP-bound HRAS wild-type protein to KD value with respect to KRAS) ([2]; KD ratio HRAS/KRAS, SPR): C (A compound having a KD ratio of 0.1 or more and less than 3 is denoted as C)

Compound: CCO[C@@H]1C[C@H]2C(=O)NC3(CCC3)C(=O)N(C)[C@@H](C3CCCC3)C(=O)N(C)[C@H](C(=O)N(C)C)CC(=O)N(C)[C@@H](Cc3cccs3)C(=O)N[C@@H]([C@@H](C)CC)C(=O)N(C)CC(=O)N(C)[C@H]3CCCCCN(C3=O)[C@@H](Cc3ccc(F)cc3)C(=O)N(C)CC(=O)N[C@@H](CCc3cc(F)c(C(F)(F)F)c(F)c3)C(=O)N2C1 [PP1197]
- NRAS/KRAS (ratio of KD value with respect to NRAS to KD value with respect to KRAS) [1, 3]: B (a compound having 3 or more and less than 10 is denoted as B)
- HRAS/KRAS (ratio of KD value with respect to HRAS to KD value with respect to KRAS) [2, 4]: B (a compound having 3 or more and less than 10 is denoted as B)

Compound: CCCN1C(=O)[C@@H]2CCN2C(=O)CN(C)C(=O)[C@H]([C@@H](C)CC)NC(=O)[C@H](CC(C)C)N(C)C(=O)C[C@@H](C(=O)N(C)C)NC(=O)[C@H](C2CCCC2)N(C)C(=O)C2(CCC2)NC(=O)[C@@H]2CC(F)(F)CN2C(=O)[C@H](CCc2ccc(C(F)(F)F)c(Cl)c2)NC(=O)CN(C)C(=O)[C@@H]1Cc1ccc(C(F)(F)F)cc1 [PP0388] ([NMeL]I[Sar][Aze][NPrPhe(4-CF3)][Sar][hPhe(3-Cl-4-CF3)][Pro(4,4-F2)][Ac4c][NMeGly(cPent)]D-NMe2; lactam N-11)
- NRAS/KRAS (ratio of KD for GDP-bound NRAS wild-type to KD for KRAS) ([1]; KD ratio NRAS/KRAS, SPR): C (A compound having a KD ratio of 0.1 or more and less than 3 is denoted as C)
- HRAS/KRAS (ratio of KD for GDP-bound HRAS wild-type to KD for KRAS) ([2]; KD ratio HRAS/KRAS, SPR): B (a compound having 3 or more and less than 10 is denoted as B)

Compound: CCCC[C@H]1C(=O)N[C@@H]([C@@H](C)CC)C(=O)N(C)CC(=O)N(C)[C@H]2C/C=C\CCN(C2=O)[C@@H](Cc2ccc(C(F)(F)F)cc2)C(=O)N(C)CC(=O)N[C@@H](CCc2ccc(C(F)(F)F)c(OC)c2)C(=O)N2C[C@H](OCC)C[C@H]2C(=O)NC2(CCC2)C(=O)N(C)[C@@H](C2CCCC2)C(=O)N(C)[C@H](C(=O)N(C)CC)CC(=O)N1C [PP2840]
- NRAS/KRAS (ratio of KD value with respect to GDP-bound NRAS wild-type protein to KD value with respect to KRAS) ([1]; KD ratio NRAS/KRAS, class symbols): A (a compound having 10 or more and less than 20 is denoted as A)
- HRAS/KRAS (ratio of KD value with respect to GDP-bound HRAS wild-type protein to KD value with respect to KRAS) ([2]; KD ratio HRAS/KRAS, class symbols): A (a compound having 10 or more and less than 20 is denoted as A)
